From publication PMC6155831, “Promising Inhibitory Effects of Anthraquinones, Naphthopyrone, and Naphthalene Glycosides, from Cassia obtusifolia on α-Glucosidase and Human Protein Tyrosine Phosphatases 1B” (Molecules : A Journal of Synthetic Chemistry and Natural …, 2016)

Columns and labels:
[1] = tested on: insulin-resistant HepG2 cells; test: 2-NBDG glucose uptake assay in insulin-resistant HepG2 cells; type: cell-based, human
Experimental: The HepG2 (human hepatocarcinoma) cell line was purchased from the American Type Culture Collection (HB-8065, Manassas, VA, USA). Cells were maintained in MEM containing 2.0 mM L-glutamine, 0.1 mM non-essential amino acids, 1.0 mM sodium pyruvate, and 10% FBS at 37 °C in a humidified atmosphere with 5% CO2. The medium was changed every 48 h. […] The establishment of an insulin-resistant HepG2 cell model and glucose uptake was performed according to the reported method, with slight modifications. Briefly, HepG2 cells were cultured in 96-well cluster plates. After reaching confluence, the cells were treated with 10^−6 mol/L insulin for 24 h to induce insulin resistance. […] After this incubation, the 2-NBDG uptake in insulin-resistant HepG2 cells was measured. The cells were incubated with 40 μM 2-NBDG for 30 min. To stop the response, cells were washed with ice-cold PBS and the fluorescence intensity of 2-NBDG was measured on a Synergy HT microplate reader (BioTek Instruments, Winooski, VT, USA) at 485 nm excitation and 528 nm emission. Six replicate wells were established and each experiment was repeated three times.

[2] = target: T1, PTP1B (human recombinant) (Homo sapiens, UniProt P18031); test: Protein tyrosine phosphatase 1B (PTP1B) inhibition assay with pNPP as substrate; type: biochemical; conditions: pNPP substrate, test concentration up to 100 µg/mL in 10% DMSO, triplicate; for IC50: read-out: PTP1B IC50 (Mean ± SEM) (converted)
T1 construct: purchased Biomol International LP (Plymouth Meeting, PA, USA)
T1 sequence (P18031 1-435): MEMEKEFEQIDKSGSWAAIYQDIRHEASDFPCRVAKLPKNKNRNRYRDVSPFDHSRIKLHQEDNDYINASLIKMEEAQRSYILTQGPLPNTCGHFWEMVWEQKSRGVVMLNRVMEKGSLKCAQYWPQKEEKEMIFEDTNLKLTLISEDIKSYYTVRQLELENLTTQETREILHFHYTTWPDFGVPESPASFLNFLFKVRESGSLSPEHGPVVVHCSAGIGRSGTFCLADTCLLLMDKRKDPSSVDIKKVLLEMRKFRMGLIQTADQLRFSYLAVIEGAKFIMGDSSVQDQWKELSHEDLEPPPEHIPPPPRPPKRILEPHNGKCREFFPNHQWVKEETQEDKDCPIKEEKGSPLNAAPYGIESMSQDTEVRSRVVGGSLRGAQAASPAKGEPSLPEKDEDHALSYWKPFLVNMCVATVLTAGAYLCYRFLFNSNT
Experimental: The PTP1B inhibitory activities were evaluated using p-nitrophenyl phosphate as the substrate (pNPP) in a procedure reported by Cui et al.. Each well of a 96-well plate (final volume 100 μL) contained were 40 μL of PTP1B enzyme (0.5 units diluted with a PTP1B reaction buffer containing 50 mM citrate (pH 6.0), 0.1 M NaCl, 1 mM EDTA, and 1 mM dithiotheritol (DTT)), to which sample (test concentration up to 100 μg/mL) dissolved in 10% DMSO was or was not added. The plate was pre-incubated at 37 °C for 10 min, and then 50 μL of 2 mM pNPP in PTP1B reaction buffer was added. Following incubation at 37 °C for 30 min, the reaction was terminated with the addition of 10 M NaOH. The amounts of p-nitrophenyl produced after enzymatic dephosphorylation from pNPP was estimated by measuring the absorbance at 405 nm using microplate spectrophotometer (Molecular Devices). The non-enzymatic hydrolysis of 2 mM pNPP was corrected by measuring the increase in absorbance at 405 nm obtained in the absence of PTP1B enzyme. The percent inhibition (%) was obtained by the following equation: % inhibition = (Ac − As)/Ac × 100, where Ac is the absorbance of the control, and As is the absorbance of the sample.

Yeast α-glucosidase = test: α-Glucosidase inhibitory assay with pNPG as substrate; type: biochemical; conditions: test concentration up to 400 µg/mL in 10% DMSO, triplicate
Experimental: Enzyme inhibition assays were carried out spectrophotometrically using a procedure reported by Li et al.. A 60 μL reaction mixture containing 20 μL of 100 mM phosphate buffer (pH 6.8), 20 μL of 2.5 mM pNPG, and 20 μL of sample (test concentration up to 400 μg/ml for compounds) dissolved in 10% DMSO was added to each well, followed by the addition of 20 μL of α-glucosidase (0.2 U/mL in 10 mM phosphate buffer (pH 6.8)). The plate was incubated at 37 °C for 15 min, and then 80 μL of 0.2 M sodium carbonate solution was added to stop the reaction. Right after that, the absorbance was recorded at 405 nm using a VERSA max microplate reader (Molecular Devices, Sunnyvale, CA, USA). The control contained the same reaction mixture with the same volume of phosphate buffer instead of sample solution. […] The percent inhibition (%) was obtained using the following equation: % Inhibition = (Ac − As)/Ac × 100, where Ac is the absorbance of the control, and As is the absorbance of the sample.

PTP1B = tested on: PTP1B; set-up: method as in earlier work; conditions: cited from earlier work
α-glucosidase = tested on: α-glucosidase; set-up: method as in doi:10.1007/s10600-012-0275-4, PMID 25142941; conditions: from the EtOAc fraction of the methanolic extract of C. obtusifolia; cited from earlier work
HepG2 cells = test: MTT cytotoxicity assay on HepG2 cells; conditions: human, 24 h
Experimental: Before determining the insulin resistance of alaternin and emodin, the cytotoxicity of alaternin and emodin on HepG2 cells was first measured by the MTT assay. […] To investigate the ability of alaternin and emodin to increase glucose uptake, a 2-[N-(7-nitrobenz-2-oxa-1,3-diazol-4-yl) amino]-2-deoxy-D-glucose (2-NBDG) uptake assay was performed with insulin-resistant HepG2 cells.

Row | Compound | PTP1B IC50 (Mean ± SEM) [2] [µg/mL] | α-Glucosidase IC50 (Mean ± SEM) (Yeast α-glucosidase) [µg/mL] | IC50 [2] [µM] | other results
1 | CN(C)C(=N)N=C(N)N [metformin, reference compound] |  |  |  | insulin-stimulated glucose uptake ([1]; metformin 10 μM, positive control): significantly increased
2 | COc1cc2c(c(OC)c1OC)C(=O)c1c(cc(C)c(O[C@@H]3O[C@H](CO)[C@@H](O)[C@H](O)[C@H]3O)c1OC)C2=O [Chryso-obtusin-2-glucoside, chryso-obtusin-2-O-β-D-glucoside] | 39.34 ± 1.07 | 178.85 ± 0.55 |  | 
3 | COc1c(O)c(O)cc2c1C(=O)c1c(O)cc(C)cc1C2=O [2-Hydroxyemodin-1 methylether] | 5.22 ± 0.29 | 5.65 ± 0.20 |  | 
4 | Cc1cc(O[C@@H]2O[C@H](CO[C@@H]3O[C@H](CO)[C@@H](O)[C@H](O[C@@H]4O[C@H](CO[C@@H]5O[C@H](CO)[C@@H](O)[C@H](O)[C@H]5O)[C@@H](O)[C@H](O)[C@H]4O)[C@H]3O)[C@@H](O)[C@H](O)[C@H]2O)c2c(c1)C(=O)c1cccc(O)c1C2=O [Chrysophanol tetraglucoside] | 103.89 ± 1.22 | 228.79 ± 0.91 |  | 
5 | COc1c(O[C@@H]2O[C@H](CO)[C@@H](O)[C@H](O)[C@H]2O)c(C)cc2c1C(=O)c1c(O)cccc1C2=O [Gluco-obtusifolin] | 53.35 ± 0.44 | 23.77 ± 0.72 |  | 
6 | Toralactone gentiobioside | 81.15 ± 0.15 | 37.60 ± 0.79 |  | 
7 | Cc1cc(O)c2c(c1)C(=O)c1cccc(O)c1C2=O [Chrysophanol] |  | 46.81 ± 0.12 | 23 | PTP1B inhibition (previous reports) (PTP1B): inhibited PTP1B
8 | COc1c(O)cc2c(c1O)C(=O)c1c(cc(C)c(O)c1OC)C2=O [Aurantio-obtusin] |  | 41.20 ± 0.17 | 82.3 | α-glucosidase inhibitory activity (reported) (α-glucosidase): inactive
9 | O=C1c2cccc(O)c2C(=O)c2c(O)cc(CO)cc21 [Aloe-emodin] |  | 1.40 ± 0.27 | 207 | 
10 | COc1cc(C)cc2c1C(=O)c1c(O)cc(O)cc1C2=O [1-O-methylemodin] |  |  |  | α-glucosidase inhibitory activity (reported) (α-glucosidase): inactive
11 | Cc1cc(O[C@@H]2O[C@H](CO[C@@H]3O[C@H](CO)[C@@H](O)[C@H](O[C@@H]4O[C@H](CO)[C@@H](O)[C@H](O)[C@H]4O)[C@H]3O)[C@@H](O)[C@H](O)[C@H]2O)c2c(c1)C(=O)c1cccc(O)c1C2=O [Chrysophanol triglucoside] | 80.17 ± 1.77 | 197.06 ± 1.09 |  | 
12 | Cassiaside | 48.55 ± 1.27 | 129.23 ± 0.98 |  | 
13 | COc1cccc2c1C(=O)c1c(O)cc(C)cc1C2=O [8-O-methyl chrysophanol] |  |  |  | α-glucosidase inhibitory activity (reported) (α-glucosidase): α-glucosidase inhibitors
14 | COc1cc(O)c2c(c1)C(=O)c1cc(C)cc(O)c1C2=O [Physcion] |  | 2.38 ± 0.77 | 25.6 | PTP1B inhibition (previous reports) (PTP1B): inhibited PTP1B; α-glucosidase inhibitory activity (reported) (α-glucosidase): α-glucosidase inhibitors
15 | COc1c(O[C@@H]2O[C@H](CO)[C@@H](O)[C@H](O)[C@H]2O)cc2c(c1O)C(=O)c1c(cc(C)c(O)c1OC)C2=O [Gluco-aurantio obtusin] | 31.30 ± 0.97 | 142.19 ± 1.22 |  | 
16 | COc1c(O)c(C)cc2c1C(=O)c1c(O)cccc1C2=O [Obtusifolin] |  | 142.12 ± 0.77 | 124 | α-glucosidase inhibitory activity (reported) (α-glucosidase): inactive
17 | Cc1cc(O)c2c(c1)C(=O)c1cc(O)cc(O)c1C2=O [Emodin, 1,6,8-trihydroxy 3-methyl anthraquinone] |  | 1.02 ± 0.01 | 13 | PTP1B inhibition (previous reports) (PTP1B): inhibited PTP1B; insulin-stimulated uptake of 2-NBDG ([1]; 3.125, 6.25, and 12.5 μM emodin, 24 h, compared to the control): significantly enhanced; concentration without any cytotoxicity (HepG2 cells): up to 12.5 µM
18 | COc1cc(O)cc2c1C(=O)c1c(O)cc(C)cc1C2=O [Questin] |  | 136.19 ± 0.01 | 20 | 
19 | Cassitoroside |  | 172.59 ± 0.74 |  | 
20 | COc1cc2c(c(OC)c1OC)C(=O)c1c(cc(C)c(O)c1OC)C2=O [Chryso-obtusin] |  | 36.01 ± 0.89 | 41.5 | α-glucosidase inhibitory activity (reported) (α-glucosidase): α-glucosidase inhibitors
21 | COc1cc2c(c(O)c1OC)C(=O)c1c(cc(C)c(O)c1OC)C2=O [Obtusin] | 6.44 ± 0.22 | 20.92 ± 0.41 |  | 
